Data from the NIST ThermoML archive (doi:10.1016/j.jct.2019.05.023).
± gives the expanded uncertainty stated by the source.

Assays:
[1] = 101.3 kPa, Liquid; for speed of sound: Frequency=3 MHz, Single path-length method; for mass density: Vibrating tube method
[2] = xn = mol fraction of the nth substance listed; conditions: 101.3 kPa, Liquid, x1 = 1; for speed of sound: Frequency=3 MHz, Single path-length method; for mass density: Vibrating tube method

| Compound | speed of sound ([1]; 298.15 K) | mass density ([1]; 298.15 K) | speed of sound ([1]; 303.15 K) | mass density ([1]; 303.15 K) | speed of sound ([1]; 308.15 K) | mass density ([1]; 308.15 K) | speed of sound ([1]; 313.15 K) | mass density ([1]; 313.15 K) | speed of sound ([1]; 318.15 K) | mass density ([1]; 318.15 K) | speed of sound ([2]; 298.15 K) | mass density ([2]; 298.15 K) | speed of sound ([2]; 303.15 K) | mass density ([2]; 303.15 K) | speed of sound ([2]; 308.15 K) | mass density ([2]; 308.15 K) | speed of sound ([2]; 313.15 K) | mass density ([2]; 313.15 K) | speed of sound ([2]; 318.15 K) | mass density ([2]; 318.15 K) |
| --- | --- | --- | --- | --- | --- | --- | --- | --- | --- | --- | --- | --- | --- | --- | --- | --- | --- | --- | --- | --- |
| CCn1cc[n+](C)c1.O=S(=O)([O-])C(F)(F)F [1-ethyl-3-methylimidazolium trifluoromethanesulfonate] | 1436 ± 10 m/s | 1383 ± 2 kg/m3 | 1425 ± 10 m/s | 1379 ± 2 kg/m3 | 1413 ± 10 m/s | 1374 ± 2 kg/m3 | 1402 ± 10 m/s | 1370 ± 2 kg/m3 | 1391 ± 10 m/s | 1366 ± 2 kg/m3 | – | – | – | – | – | – | – | – | – | – |
| CCn1cc[n+](C)c1.O=S(=O)([O-])C(F)(F)F [1-ethyl-3-methylimidazolium trifluoromethanesulfonate] + CCCOCCO | – | – | – | – | – | – | – | – | – | – | 1436 ± 10 m/s | 1383 ± 2 kg/m3 | 1425 ± 10 m/s | 1379 ± 2 kg/m3 | 1413 ± 10 m/s | 1374 ± 2 kg/m3 | 1402 ± 10 m/s | 1370 ± 2 kg/m3 | 1391 ± 10 m/s | 1366 ± 2 kg/m3 |

Now from value to compound:

| speed of sound ([1]; 298.15 K) | mass density ([1]; 298.15 K) | speed of sound ([1]; 303.15 K) | mass density ([1]; 303.15 K) | speed of sound ([1]; 308.15 K) | mass density ([1]; 308.15 K) | speed of sound ([1]; 313.15 K) | mass density ([1]; 313.15 K) | speed of sound ([1]; 318.15 K) | mass density ([1]; 318.15 K) | speed of sound ([2]; 298.15 K) | mass density ([2]; 298.15 K) | speed of sound ([2]; 303.15 K) | mass density ([2]; 303.15 K) | speed of sound ([2]; 308.15 K) | mass density ([2]; 308.15 K) | speed of sound ([2]; 313.15 K) | mass density ([2]; 313.15 K) | speed of sound ([2]; 318.15 K) | mass density ([2]; 318.15 K) | Compound |
| --- | --- | --- | --- | --- | --- | --- | --- | --- | --- | --- | --- | --- | --- | --- | --- | --- | --- | --- | --- | --- |
| – | – | – | – | – | – | – | – | – | – | 1436 ± 10 m/s | 1383 ± 2 kg/m3 | 1425 ± 10 m/s | 1379 ± 2 kg/m3 | 1413 ± 10 m/s | 1374 ± 2 kg/m3 | 1402 ± 10 m/s | 1370 ± 2 kg/m3 | 1391 ± 10 m/s | 1366 ± 2 kg/m3 | CCn1cc[n+](C)c1.O=S(=O)([O-])C(F)(F)F [1-ethyl-3-methylimidazolium trifluoromethanesulfonate] + CCOCCO |
| 1304 ± 10 m/s | 926 ± 2 kg/m3 | 1287 ± 10 m/s | 921 ± 2 kg/m3 | 1270 ± 10 m/s | 917 ± 2 kg/m3 | 1252 ± 10 m/s | 912 ± 2 kg/m3 | 1234 ± 10 m/s | 907 ± 2 kg/m3 | – | – | – | – | – | – | – | – | – | – | CCOCCO [2-ethoxyethan-1-ol] |
| 1301 ± 10 m/s | 908 ± 2 kg/m3 | 1283 ± 10 m/s | 903 ± 2 kg/m3 | 1266 ± 10 m/s | 899 ± 2 kg/m3 | 1248 ± 10 m/s | 895 ± 2 kg/m3 | 1231 ± 10 m/s | 890 ± 2 kg/m3 | – | – | – | – | – | – | – | – | – | – | CCCOCCO [2-propoxyethanol] |
